The record followed here is patent US20110280865A1, “Ets-2 Biomarkers for Fibrotic Diseases and Uses Thereof” (THE OHIO STATE UNIVERSITY, priority 2009, published 2011).

The assay concerns ets-2 (WT/WT) and ets-2 (A72/A72) mice. In words: Bronchoalveolar lavage (BAL) cell differentials after intra-peritoneal bleomycin. The assay is classed as in vivo, mouse. The following applies: mean ± S.E.M. As to the method:
Mice: Transgenic mice harboring a point mutation in Ets2 [Ets2tmA720sh, referred to as Ets2 (A72/A72)] resulting in a threonine to alanine conversion at position 72 were used. Wild type littermates (FVB/N background) were used as controls.
Bleomycin studies: Male mice, aged 6-12 weeks, underwent intra-peritoneal (IP) injection. Briefly, mice were injected with 0.035 U bleomycin/g or PBS (vehicle control) on days 1, 4, 8, 11, 15, 18, 22, and 25. One week following the last injection, mice were sacrificed. Prior to removal, lungs were lavaged with 1.0 ml of PBS. Lungs were subsequently removed and inflated at 20 cm pressure. The left lobe of the lung was placed in 10% Formalin and prepared for immunohistochemical processing (Histotechniques, Powell, Ohio), and the right lobes were snap frozen in liquid nitrogen for RNA, collagen, and protein analyses.
Bronchoalveolar lavage (BAL) analysis: Following the bleomycin regimen (33 days), two instillations of 0.5 ml of PBS were performed, and the BAL fluid (BALF) was collected. The total number of cells isolated via BAL was calculated. BAL fluid was then centrifuged to pellet the cells, and the supernatant (BALF) was collected and stored for ELISA analyses. Cells were resuspended in 100 μl of PBS, cytospun on slides, stained, and analyzed under a microscope for cell differentials.

Setting [1] is: ets-2 (A72/A72) mice, n = 7, 0.035 U bleomycin/g IP.
[2] abbreviates: ets-2 (WT/WT) mice, n = 5, 0.035 U bleomycin/g IP.

Regarding bleomycin, under setting [1], the “Alveolar Macrophages” value is listed as 6.8 ± 1.4 ×10^4, the Lymphocytes was 0.7 ± 0.6 ×10^4, the Neutrophils is 0.8 ± 0.6 ×10^4 and the Total cells is 8.3 ± 2.0 ×10^4. Moreover, under setting [2], the “Alveolar Macrophages” value was 12.0 ± 2.3 $ ×10^4, the Lymphocytes is listed as 0 ×10^4, the Neutrophils is 0 ×10^4 and the Total cells is given as 12.0 ± 2.3 # ×10^4.
